We go through 13 molecules from US20230091042A1, “SMARCA2-VHL DEGRADERS” (AMGEN INC., priority 2020, published 2023).

Each structure is given as a SMILES string.

For experiment [1], the target named is T1, SMARCA2 (Homo sapiens, UniProt P51531).
T1 construct: endogenous in cells; host or cells: A375 cells (ATCC CRL-1619)
The experiment is described as follows: SMARCA2 MSD assay in A375 cells (SMARCA2 degradation, 2 h). In kind it is cell-based. As to conditions: 2 h compound treatment, N/C = no curve; for DC50: read-out: A375 SMARCA2 MSD IC50 IP. As for the experimental part: (§1) SMARCA2 and SMARCA4 MSD Assays in A375 Cells:
A375 cells (ATCC® CRL-1619™) were cultured in RPMI 1640 Medium (ThermoFisher Scientific 11875093) containing 10% fetal bovine serum (ThermoFisher Scientific 16000044) and 1× penicillin-streptomycin-glutamine (ThermoFisher Scientific 10378016). Sixteen hours prior to compound treatment, cells were seeded in 96-well cell culture plates (Corning 3904) at a density of 2.5×10^5 cells/well (90 uL/well) and incubated at 37° C., 5% CO2. A 1:3 compound dose-response titration was diluted in growth media (1:20), added to appropriate wells of a cell culture plate (1:10) and then assay plates were incubated at 37° C., 5% CO2. After 2 h of compound treatment, cells were lysed in MSD lysis buffer (MSD R60TX-2) containing protease (Roche 04693116001) and phosphatase (Roche 04906837001) inhibitors.
. Plates were washed with 300 μL per well MSD wash buffer (MSD R61TX-1) between each step. Following the last incubation, plates were washed with MSD wash buffer then 150 uL of MSD read buffer (MSD R92TC-2) was added to each well. Plates were immediately read on a MSD plate reader (MSD Sector Imager 6000) and data was analyzed using a 4-parameter logistic model to calculate IC50 values.

Experiment [2] has as its target T2, SMARCA4 (Homo sapiens, UniProt P51532).
T2 construct: After 2 h of compound treatment, cells were lysed in MSD lysis buffer; endogenous in cells; host or cells: A375 cells (ATCC CRL-1619)
In words: SMARCA4 MSD assay in A375 cells (SMARCA4 degradation, 2 h). Type of experiment: cell-based. The note with it: 2 h compound treatment, N/C = no curve. As for the experimental part: as §1
A 1:3 compound dose-response titration was diluted in growth media (1:20), added to appropriate wells of a cell culture plate (1:10) and then assay plates were incubated at 37° C., 5% CO2.
Plates were washed with 300 μL per well MSD wash buffer (MSD R61TX-1) between each step. Following the last incubation, plates were washed with MSD wash buffer then 150 uL of MSD read buffer (MSD R92TC-2) was added to each well. Plates were immediately read on a MSD plate reader (MSD Sector Imager 6000) and data was analyzed using a 4-parameter logistic model to calculate IC50 values.

T2 sequence (P51532 whole entry): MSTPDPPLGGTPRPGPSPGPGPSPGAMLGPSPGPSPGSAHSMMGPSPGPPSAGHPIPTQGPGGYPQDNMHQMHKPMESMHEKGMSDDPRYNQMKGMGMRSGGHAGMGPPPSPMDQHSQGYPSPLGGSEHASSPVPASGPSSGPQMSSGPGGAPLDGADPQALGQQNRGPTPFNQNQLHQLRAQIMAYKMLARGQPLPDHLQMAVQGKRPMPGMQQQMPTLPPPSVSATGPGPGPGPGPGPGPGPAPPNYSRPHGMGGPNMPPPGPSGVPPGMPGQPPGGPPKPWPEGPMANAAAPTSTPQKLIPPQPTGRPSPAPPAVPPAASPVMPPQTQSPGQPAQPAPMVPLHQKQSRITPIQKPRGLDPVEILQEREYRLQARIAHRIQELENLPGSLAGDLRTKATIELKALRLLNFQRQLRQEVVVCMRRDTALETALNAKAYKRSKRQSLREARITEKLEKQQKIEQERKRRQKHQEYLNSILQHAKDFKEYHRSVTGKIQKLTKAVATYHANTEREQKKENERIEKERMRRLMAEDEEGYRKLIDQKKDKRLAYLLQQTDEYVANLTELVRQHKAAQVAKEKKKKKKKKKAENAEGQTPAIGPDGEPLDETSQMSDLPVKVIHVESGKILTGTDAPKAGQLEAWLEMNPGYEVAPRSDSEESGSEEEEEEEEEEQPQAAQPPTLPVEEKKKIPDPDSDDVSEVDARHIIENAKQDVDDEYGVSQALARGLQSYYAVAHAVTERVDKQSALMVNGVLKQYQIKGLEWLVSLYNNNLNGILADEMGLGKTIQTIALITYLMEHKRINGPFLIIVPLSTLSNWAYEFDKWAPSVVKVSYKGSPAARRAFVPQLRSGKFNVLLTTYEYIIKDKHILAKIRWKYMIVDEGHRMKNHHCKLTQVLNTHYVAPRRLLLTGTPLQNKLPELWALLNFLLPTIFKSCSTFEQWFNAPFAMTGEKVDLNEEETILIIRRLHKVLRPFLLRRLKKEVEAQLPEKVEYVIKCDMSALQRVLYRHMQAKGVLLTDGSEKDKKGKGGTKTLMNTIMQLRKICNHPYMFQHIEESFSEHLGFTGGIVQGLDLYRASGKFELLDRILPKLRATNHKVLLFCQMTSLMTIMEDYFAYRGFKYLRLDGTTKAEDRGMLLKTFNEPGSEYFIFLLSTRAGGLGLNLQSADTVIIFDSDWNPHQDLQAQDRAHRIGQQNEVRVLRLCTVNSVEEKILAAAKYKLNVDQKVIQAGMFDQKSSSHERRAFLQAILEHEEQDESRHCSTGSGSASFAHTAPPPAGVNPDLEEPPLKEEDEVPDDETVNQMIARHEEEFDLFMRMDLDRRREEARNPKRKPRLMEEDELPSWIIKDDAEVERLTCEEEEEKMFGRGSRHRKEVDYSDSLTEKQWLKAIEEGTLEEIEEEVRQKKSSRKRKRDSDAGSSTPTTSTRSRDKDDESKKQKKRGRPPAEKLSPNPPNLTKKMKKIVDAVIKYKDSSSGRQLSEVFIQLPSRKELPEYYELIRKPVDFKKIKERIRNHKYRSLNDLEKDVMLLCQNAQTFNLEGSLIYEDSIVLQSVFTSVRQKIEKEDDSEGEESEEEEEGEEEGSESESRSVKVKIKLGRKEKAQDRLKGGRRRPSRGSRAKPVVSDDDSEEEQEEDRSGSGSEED
T1 sequence (P51531 whole entry): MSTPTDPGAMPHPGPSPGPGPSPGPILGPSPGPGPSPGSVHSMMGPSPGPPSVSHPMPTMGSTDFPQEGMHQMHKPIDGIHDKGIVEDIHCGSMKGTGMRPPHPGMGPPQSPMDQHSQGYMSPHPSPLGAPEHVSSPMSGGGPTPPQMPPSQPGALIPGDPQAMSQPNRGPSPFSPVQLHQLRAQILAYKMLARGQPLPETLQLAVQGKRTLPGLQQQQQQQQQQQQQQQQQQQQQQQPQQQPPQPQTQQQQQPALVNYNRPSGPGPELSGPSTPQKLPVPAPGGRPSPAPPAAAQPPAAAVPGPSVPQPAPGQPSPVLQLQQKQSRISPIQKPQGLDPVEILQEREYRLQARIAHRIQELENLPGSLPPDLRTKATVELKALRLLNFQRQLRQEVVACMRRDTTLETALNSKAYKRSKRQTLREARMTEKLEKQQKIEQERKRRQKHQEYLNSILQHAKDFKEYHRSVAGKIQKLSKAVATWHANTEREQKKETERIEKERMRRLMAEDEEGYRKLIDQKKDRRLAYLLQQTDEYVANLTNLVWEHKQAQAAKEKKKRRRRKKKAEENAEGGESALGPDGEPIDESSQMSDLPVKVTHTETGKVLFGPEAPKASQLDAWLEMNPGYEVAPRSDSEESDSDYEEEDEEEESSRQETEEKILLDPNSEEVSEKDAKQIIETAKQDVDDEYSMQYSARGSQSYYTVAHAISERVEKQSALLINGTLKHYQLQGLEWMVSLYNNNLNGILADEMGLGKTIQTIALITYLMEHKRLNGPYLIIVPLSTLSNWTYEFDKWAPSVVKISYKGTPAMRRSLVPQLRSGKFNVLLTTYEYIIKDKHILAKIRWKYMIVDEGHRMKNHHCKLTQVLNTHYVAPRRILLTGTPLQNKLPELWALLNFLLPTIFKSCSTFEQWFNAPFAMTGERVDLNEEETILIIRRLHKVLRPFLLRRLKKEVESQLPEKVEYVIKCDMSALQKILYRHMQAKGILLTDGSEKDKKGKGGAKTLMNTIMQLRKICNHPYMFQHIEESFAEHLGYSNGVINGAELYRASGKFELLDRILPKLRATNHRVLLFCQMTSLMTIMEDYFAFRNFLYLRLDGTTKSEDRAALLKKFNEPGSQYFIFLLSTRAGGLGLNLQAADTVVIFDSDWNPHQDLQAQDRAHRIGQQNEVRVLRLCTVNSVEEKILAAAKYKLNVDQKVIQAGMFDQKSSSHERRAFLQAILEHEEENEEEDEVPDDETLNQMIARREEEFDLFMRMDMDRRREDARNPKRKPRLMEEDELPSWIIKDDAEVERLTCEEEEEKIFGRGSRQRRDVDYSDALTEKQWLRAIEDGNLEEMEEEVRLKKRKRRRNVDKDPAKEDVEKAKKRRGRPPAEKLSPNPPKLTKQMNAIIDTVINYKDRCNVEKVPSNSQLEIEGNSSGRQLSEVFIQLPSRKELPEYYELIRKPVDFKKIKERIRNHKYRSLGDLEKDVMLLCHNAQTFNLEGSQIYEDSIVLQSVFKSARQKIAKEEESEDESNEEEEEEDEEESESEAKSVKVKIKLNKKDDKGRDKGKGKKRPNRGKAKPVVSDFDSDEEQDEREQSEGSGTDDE

Take `Cc1ncsc1-c1ccc(CNC(=O)[C@@H]2C[C@@H](O)CN2C(=O)[C@@H](NC(=O)c2ccnc(N3CCN(c4cc(-c5ccccc5O)nnc4N)CC3)c2)C(C)(C)C)cc1` [Example 1, 2-(4-(3-Amino-6-(2-hydroxyphenyl)pyridazin-4-yl)piperazin-1-yl)-N—((S)-1-((2S,4R)-4-hydroxy-2-((4-(4-methylthiazol-5-yl)benzyl)carbamoyl)pyrrolidin-1-yl)-3,3-dimethyl-1-oxobutan-2-yl)isonicotinamide]: in experiment [1], the DC50 amounted to 0.11 µM.

Consider `Cc1ncsc1-c1ccc([C@H](C)NC(=O)[C@@H]2C[C@@H](O)CN2C(=O)[C@@H](NC(=O)c2cccc(N3CCN(c4cc(-c5ccccc5O)nnc4N)CC3)n2)C(C)(C)C)cc1` [Example 2, 6-(4-(3-Amino-6-(2-hydroxyphenyl)pyridazin-4-yl)piperazin-1-yl)-N—((S)-1-((2S,4R)-4-hydroxy-2-(((S)-1-(4-(4-methylthiazol-5-yl)phenyl)ethyl)carbamoyl)pyrrolidin-1-yl)-3,3-dimethyl-1-oxobutan-2-yl)picolinamide], for which the DC50 in experiment [1] was 0.12 µM. Regarding `Cc1ncsc1-c1ccc([C@H](C)NC(=O)[C@@H]2C[C@@H](O)CN2C(=O)[C@@H](NC(=O)c2ccnc(N3CCN(c4cc(-c5ccccc5O)nnc4N)CC3)c2)C(C)(C)C)cc1` [Example 3, 2-(4-(3-Amino-6-(2-hydroxyphenyl)pyridazin-4-yl)piperazin-1-yl)-N—((S)-1-((2S,4R)-4-hydroxy-2-(((S)-1-(4-(4-methylthiazol-5-yl)phenyl)ethyl)carbamoyl)pyrrolidin-1-yl)-3,3-dimethyl-1-oxobutan-2-yl)isonicotinamide], the DC50 in experiment [1] is 0.043 µM.

Regarding `Cc1ncsc1-c1ccc([C@H](C)NC(=O)[C@@H]2C[C@@H](O)CN2C(=O)[C@@H](NC(=O)c2cccc(N3CCN(c4cc(-c5ccccc5O)nnc4N)CC3)c2)C(C)(C)C)cc1` [Example 4, (2S,4R)-1-((S)-2-(3-(4-(3-Amino-6-(2-hydroxyphenyl)pyridazin-4-yl)piperazin-1-yl)benzamido)-3,3-dimethylbutanoyl)-4-hydroxy-N—((S)-1-(4-(4-methylthiazol-5-yl)phenyl)ethyl)pyrrolidine-2-carboxamide], the DC50 in experiment [1] amounted to 0.022 µM. As to `Cc1ncsc1-c1ccc([C@H](C)NC(=O)[C@@H]2C[C@@H](O)CN2C(=O)[C@@H](NC(=O)c2csc(N3CCN(c4cc(-c5ccccc5O)nnc4N)CC3)n2)C(C)(C)C)cc1` [Example 5, 2-(4-(3-Amino-6-(2-hydroxyphenyl)pyridazin-4-yl)piperazin-1-yl)-N—((S)-1-((2S,4R)-4-hydroxy-2-(((S)-1-(4-(4-methylthiazol-5-yl)phenyl)ethyl)carbamoyl)pyrrolidin-1-yl)-3,3-dimethyl-1-oxobutan-2-yl)thiazole-4-carboxamide], the DC50 in experiment [1] was 0.15 µM. With `Cc1ncsc1-c1ccc([C@H](C)NC(=O)[C@@H]2C[C@@H](O)CN2C(=O)[C@@H](NC(=O)c2ccc(N3CCN(c4cc(-c5ccccc5O)nnc4N)CC3)s2)C(C)(C)C)cc1` [Example 6, (2S,4R)-1-((S)-2-(5-(4-(3-Amino-6-(2-hydroxyphenyl)pyridazin-4-yl)piperazin-1-yl)thiophene-2-carboxamido)-3,3-dimethylbutanoyl)-4-hydroxy-N—((S)-1-(4-(4-methylthiazol-5-yl)phenyl)ethyl)pyrrolidine-2-carboxamide], in experiment [1], the DC50 came to 0.19 µM.

In the case of `Cc1ncsc1-c1ccc([C@H](C)NC(=O)[C@@H]2C[C@@H](O)CN2C(=O)[C@@H](NC(=O)c2ccc(N3CCN(c4cc(-c5ccccc5O)nnc4N)CC3)nc2)C(C)(C)C)cc1` [Example 7, 6-(4-(3-Amino-6-(2-hydroxyphenyl)pyridazin-4-yl)piperazin-1-yl)-N—((S)-1-((2S,4R)-4-hydroxy-2-(((S)-1-(4-(4-methylthiazol-5-yl)phenyl)ethyl)carbamoyl)pyrrolidin-1-yl)-3,3-dimethyl-1-oxobutan-2-yl)nicotinamide], the “A375 SMARCA2 MSD IC50 IP” value in experiment [1] was “N/C”. Moreover, in experiment [2], the “A375 SMARCA4 MSD IC50 IP” value is listed as “N/C”.

Regarding `Cc1ncsc1-c1ccc([C@H](C)NC(=O)[C@@H]2C[C@@H](O)CN2C(=O)[C@@H](NC(=O)Cc2ccnc(N3CCN(c4cc(-c5ccccc5O)nnc4N)CC3)c2)C(C)(C)C)cc1` [Example 8, (2S,4R)-1-((S)-2-(2-(2-(4-(3-Amino-6-(2-hydroxyphenyl)pyridazin-4-yl)piperazin-1-yl)pyridin-4-yl)acetamido)-3,3-dimethylbutanoyl)-4-hydroxy-N—((S)-1-(4-(4-methylthiazol-5-yl)phenyl)ethyl)pyrrolidine-2-carboxamide], the “A375 SMARCA2 MSD IC50 IP” value in experiment [1] is recorded as “N/C”. For the same molecule, the “A375 SMARCA4 MSD IC50 IP” value in experiment [2] is recorded as “N/C”. For `Cc1ncsc1-c1ccc([C@H](C)NC(=O)[C@@H]2C[C@@H](O)CN2C(=O)[C@@H](NC(=O)CCc2ccnc(N3CCN(c4cc(-c5ccccc5O)nnc4N)CC3)c2)C(C)(C)C)cc1` [Example 9, (2S,4R)-1-((S)-2-(3-(2-(4-(3-Amino-6-(2-hydroxyphenyl)pyridazin-4-yl)piperazin-1-yl)pyridin-4-yl)propanamido)-3,3-dimethylbutanoyl)-4-hydroxy-N—((S)-1-(4-(4-methylthiazol-5-yl)phenyl)ethyl)pyrrolidine-2-carboxamide], the “A375 SMARCA2 MSD IC50 IP” value in experiment [1] was “N/C”. The “A375 SMARCA4 MSD IC50 IP” value in experiment [2] is “N/C”. For the molecule `Cc1ncsc1-c1ccc([C@H](C)NC(=O)[C@@H]2C[C@@H](O)CN2C(=O)[C@@H](NC(=O)c2cccc(N3CCN(c4nc(-c5ccccc5O)nnc4N)CC3)n2)C(C)(C)C)cc1` [Example 10, 6-(4-(6-Amino-3-(2-hydroxyphenyl)-1,2,4-triazin-5-yl)piperazin-1-yl)-N—((S)-1-((2S,4R)-4-hydroxy-2-(((S)-1-(4-(4-methylthiazol-5-yl)phenyl)ethyl)carbamoyl)pyrrolidin-1-yl)-3,3-dimethyl-1-oxobutan-2-yl)picolinamide], the DC50 in experiment [1] worked out at 0.25 µM. In the case of `Cc1ncsc1-c1ccc([C@H](C)NC(=O)[C@@H]2C[C@@H](O)CN2C(=O)[C@@H](NC(=O)c2ccnc(N3CCN(c4cnnc(-c5ccccc5O)c4)CC3)c2)C(C)(C)C)cc1` [Example 11, N—((S)-1-((2S,4R)-4-Hydroxy-2-(((S)-1-(4-(4-methylthiazol-5-yl)phenyl)ethyl)carbamoyl)pyrrolidin-1-yl)-3,3-dimethyl-1-oxobutan-2-yl)-2-(4-(6-(2-hydroxyphenyl)pyridazin-4-yl)piperazin-1-yl)isonicotinamide], the DC50 in experiment [1] is 0.35 µM. In addition, the “A375 SMARCA4 MSD IC50 IP” value in experiment [2] was “N/C”. For the molecule `Cc1ncsc1-c1ccc([C@H](C)NC(=O)[C@@H]2C[C@@H](O)CN2C(=O)[C@@H](NC(=O)CN2CCN(c3cc(-c4ccccc4O)nnc3N)CC2)C(C)(C)C)cc1` [compound 1, (2S,4R)-1-((S)-2-(2-(4-(3-Amino-6-(2-hydroxyphenyl)pyridazin-4-yl)piperazin-1-yl)acetamido)-3,3-dimethylbutanoyl)-4-hydroxy-N—((S)-1-(4-(4-methylthiazol-5-yl)phenyl)ethyl)pyrrolidine-2-carboxamide, reference compound], the DC50 was 0.25 µM in experiment [1] and 0.84 µM in experiment [2] (read-out: A375 SMARCA4 MSD IC50 IP).

In the case of `Cc1ncsc1-c1ccc([C@H](C)NC(=O)[C@@H]2C[C@@H](O)CN2C(=O)[C@@H](NC(=O)CN2CCN(c3cc(-c4cccc(F)c4O)nnc3N)CC2)C(C)(C)C)cc1` [compound 2, (2S,4R)-1-((S)-2-(2-(4-(3-Amino-6-(3-fluoro-2-hydroxyphenyl)pyridazin-4-yl)piperazin-1-yl)acetamido)-3,3-dimethylbutanoyl)-4-hydroxy-N—((S)-1-(4-(4-methylthiazol-5-yl)phenyl)ethyl)pyrrolidine-2-carboxamide, reference compound], the DC50 in experiment [1] was determined as 0.42 µM.
